How the values were obtained:
[1] = molecular target: T1, murine Syk tyrosine kinase protein (GST:Syk 6-242) (Mus musculus, UniProt P48025); test: ADA method: displacement of the binding of scFv G4G11 with Syk (ELISA); settings: for inhibition at 10 µM: small molecules at 10 μM, scFv G4G11 100 nM, read-out: In vit. inhib.: mean inhibition % of the binding of scFv G4G11 with Syk in the ADA method
T1 construct: made in house
Procedure, shortened: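 GST:Syk 6-242 (murine) was immobilised at 10 μg ml^−1 and pre-incubated 1 h at ambient temperature with compounds at 10 μM final in PBS. scFv G4G11 was then added at 100 nM for 1 h. Bound scFv was detected via its C-terminal c-myc tag with HRP-9E10, and % inhibition was taken from signals with versus without compound.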

SLP-76 = test: Phosphorylation of SLP-76 (phospho-specific antibodies); assay type: cell-based, rat; settings: RBL-2H3 cells

inhibition at 10 µM [1]	Compound	IC50 ([1]; ADA method, read-out: estimated IC50 for competing with the binding of scFv G4G11 with Syk)	phosphorylation of SLP-76 (SLP-76)
86.5%	O=C(C1=C(O)C(=O)N(Cc2cccnc2)C1c1cccc(Oc2ccccc2)c1)c1ccc(Cl)cc1 (stereo not shown) [Molecule 1, 4-(4-chlorobenzoyl)-3-hydroxy-5-(3-phenoxyphenyl)-1-(3-pyridinylmethyl)-1,5-dihydro-2H-pyrrol-2-one]		
81%	COc1ccc(C2C(C(=O)c3cccs3)=C(O)C(=O)N2CCCn2ccnc2)c(OC)c1 (stereo not shown) [Molecule 2]		
81%	CCOC(=O)C1=C(C)NC2=C(C(=O)c3ccccc32)C1c1cc(Br)ccc1OCC(=O)O (stereo not shown) [Molecule 3, {4-bromo-2-[3-(ethoxy carbonyl)-2-methyl-5-oxo-4,5-dihydro-1H-indeno[1,2-b]pyridin-4-yl]phenoxy} acetic acid]		
79.5%	COc1cccc(C2C(C(=O)c3ccc(C)cc3)=C(O)C(=O)N2CCCN2CCOCC2)c1 (stereo not shown) [Molecule 4, 3-hydroxy-5-(3-methoxyphenyl)-4-(4-methylbenzoyl)-1-[3-(4-morpholinyl)propyl]-1,5-dihydro-2H-pyrrol-2-one]		
73.5%	CCOC(=O)c1ccc(N2C(=O)C(O)=C(C(=O)c3ccccc3)C2c2ccc(ON)cc2OC)cc1 (stereo not shown) [Molecule 6]		
71%	CCOC(=O)c1sc(N2C(=O)C(O)=C(C(=O)c3ccc(F)cc3)C2c2ccc(C)cc2)nc1C (stereo not shown) [Molecule 10, ethyl 2-[3-(4-fluorobenzoyl)-4-hydroxy-2-(4-methylphenyl)-5-oxo-2,5-dihydro-1H-pyrrol-1-yl]-4-methyl-1,3-thiazole-5-carboxylate]		
67.5%	COc1ccccc1C(=O)Nc1ccc(-c2nnc(SCC(=O)c3ccccc3)n2C)cc1 [Molecule 15, 2-methoxy-N-(4-(4-methyl-5-[(2-oxo-2-phenylethyl)thio]-4H-1,2,4-triazol-3-yl)phenyl)benzamide]		
63%	COc1ccc(C)cc1NC(=O)c1ccc(CN2CCC(Cc3ccccc3)CC2)cc1 [Molecule 17, 4-[(4-benzyl-1-piperidinyl)methyl}-N-(2-methoxy-5-methylphenyl)benzamide]		
63%	COc1ccc(S(=O)(=O)N(CCc2ccccc2)CC(=O)Nc2ccc(C(N)=O)cc2)cc1 [Molecule 18]		
53.5%	O=C(NCc1nnc(NCc2nc3ccccc3c(=O)[nH]2)n1-c1ccccc1)c1ccccc1F [Molecule 29]		
48%	O=C(Nc1ccccc1)c1ccc(NCCN2CCOCC2)c(S(=O)(=O)N2CCOCC2)c1 [Molecule 46, 4-{[2-(4-morpholinyl)ethyl]amino}-3-(4-morpholinylsulphonyl)-N-phenylbenzamide]		
46.5%	Cc1cc(C(=O)Nc2ccccc2C(=O)O)ccc1NC(=O)COc1ccc(C(C)C)cc1 [Molecule 49, 2-[(4-{[(4-isopropylphenoxy)acetyl]amino}-3-methylbenzoyl)amino] benzoic acid]		
43%	CCOC(=O)c1ccc(NC(=O)CSc2nnc(-c3ccco3)c(-c3ccco3)n2)cc1 [Molecule 54, ethyl 4-({[(5,6-di-2-furyl-1,2,4-triazin-3-yl)thio]acetyl}amino)benzoate]		
40%	COc1cc(-c2nnc(SCC(=O)Nc3ccc(Cl)cc3)n2CCc2ccccc2)cc(OC)c1OC [Molecule 59]		
39.5%	CCOC(=O)c1ccc(NC(=O)CC2C(=O)N(c3ccc(Cl)cc3)C(=S)N2Cc2cccnc2)cc1 (stereo not shown) [Molecule 61]		
35%	C=CCn1c(SCC(=O)Nc2cccc(OC)c2)nnc1C(C)NC(=O)c1ccccc1 (stereo not shown) [Molecule 66, N-{1-[4-allyl-5-({2-[(3-methoxyphenyl)amino]-2-oxoethyl}thio)-4H-1,2,4-triazol-3-yl]ethyl} benzamide]		
27%	C=CCn1c(CNC(=O)c2cccc(C)c2)cnc1SCC(=O)Nc1cccc(C(=O)OC(C)C)c1 [Molecule 75]		
20%	CCn1c(CCC(=O)c2ccc(Cl)cc2)nnc1SCC(=O)Nc1ccc(Br)c(C)c1C [Molecule 82]		
19%	CCOc1ccc(NC(=O)CC2C(=O)N(c3ccc(OC)cc3)C(=S)N2CCN2CCOCC2)cc1 (stereo not shown) [Molecule 84, N-(4-ethoxyphenyl)-2-{1-(4-methoxyphenyl)-3-[2-(4-morpholinyl)ethyl]-5-oxo-2-thioxo-4-imidazolidinyl}acetamide]		

Compound	inhibition at 10 µM [1]	IC50 ([1]; ADA method, read-out: estimated IC50 for competing with the binding of scFv G4G11 with Syk)	phosphorylation of SLP-76 (SLP-76)
COC(=O)c1ccccc1-c1ccc(/C=C2/SC(=S)N(Cc3ccccc3)C2=O)o1 [Molecule C-13, methyl 2-{5-[(3-benzyl-4-oxo-2-thioxo-1,3-thiazolidin-5-ylidene)methyl]-2-furyl}benzoate]	81%	~4 µM	inhibits

From patent US9504676B2, “Molecules inhibiting a metabolic pathway involving the Syk protein tyrosine kinase and method for identifying said molecules” (CENTRE NATIONAL DE LA RECHERCHE SCIENTIFIQUE, priority 2008, dated 2016)
